Test results: the NIST ThermoML archive (doi:10.1016/j.fluid.2015.07.038)
Numbers after ± are expanded uncertainties.

Conditions: Crystal; DTA

## COc1ccc2[nH]c(SCc3ncc(C)c(OC)c3C)nc2c1 [Omeprazole sulfide]
  Normal melting temperature: 119.00 ± 0.5 °C
